We go through 15 compounds from ChEMBL document CHEMBL4177570, “Pyrazole C-region analogues of 2-(3-fluoro-4-methylsulfonylaminophenyl)propanamides as potent TRPV1 antagonists” (Bioorg Med Chem Lett, 2017).

For the first experiment, the target named is T1, Transient receptor potential cation channel subfamily V member 1 (Homo sapiens, UniProt Q8NER1). As to the kind of experiment: Antagonist activity at human TRPV1 expressed in CHO cells assessed as inhibition of capsaicin-induced intracellular calcium level preincubated for 6 mins followed by capsaicin addition by Fluo-4 dye based FLIPR assay. The following applies: cho. In kind it is cell-based. Background: Calcium assays in cells follow changes in intracellular calcium, usually with a dye or a luminescent sensor.
T1 sequence (Q8NER1 whole entry): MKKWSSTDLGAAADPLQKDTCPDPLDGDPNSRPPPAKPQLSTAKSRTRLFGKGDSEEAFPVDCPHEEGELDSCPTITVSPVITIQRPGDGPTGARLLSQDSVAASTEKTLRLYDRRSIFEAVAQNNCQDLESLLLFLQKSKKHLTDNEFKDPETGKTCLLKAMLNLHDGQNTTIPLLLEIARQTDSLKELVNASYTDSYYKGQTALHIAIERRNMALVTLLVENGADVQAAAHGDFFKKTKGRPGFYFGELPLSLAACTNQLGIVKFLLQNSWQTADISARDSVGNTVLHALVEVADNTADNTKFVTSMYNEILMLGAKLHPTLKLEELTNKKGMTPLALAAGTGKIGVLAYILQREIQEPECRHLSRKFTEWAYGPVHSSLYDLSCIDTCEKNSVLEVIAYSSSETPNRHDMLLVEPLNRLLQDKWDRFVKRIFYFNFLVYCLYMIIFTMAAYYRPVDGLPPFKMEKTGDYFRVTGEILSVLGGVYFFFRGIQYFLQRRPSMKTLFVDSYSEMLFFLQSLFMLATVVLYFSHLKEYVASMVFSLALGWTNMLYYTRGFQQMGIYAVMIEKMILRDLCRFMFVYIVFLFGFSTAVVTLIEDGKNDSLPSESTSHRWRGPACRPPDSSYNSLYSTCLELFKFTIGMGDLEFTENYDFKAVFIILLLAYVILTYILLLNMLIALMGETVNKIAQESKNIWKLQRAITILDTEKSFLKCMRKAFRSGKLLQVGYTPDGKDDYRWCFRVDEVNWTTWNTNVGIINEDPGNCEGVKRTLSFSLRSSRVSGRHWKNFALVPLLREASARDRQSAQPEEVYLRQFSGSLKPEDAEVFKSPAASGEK
Regarding `COc1ccc(-n2nc(C(C)(C)C)cc2CNC(=O)C(C)c2ccc(NS(C)(=O)=O)c(F)c2)cc1` (stereo not drawn), the Ki – broadly, a measure of affinity in units of concentration, obtained from inhibition or displacement – is recorded as “Not Active”.

Turning to `CC(C)(C)c1cc(CNC(=O)C(c2cccc(F)c2)c2ccc(NS(C)(=O)=O)c(F)c2)n(-c2cccc(Cl)c2)n1` (stereo not drawn), the Ki entry is recorded as “Not Active”.

Turning to `Cc1ccc(C(C(=O)NCc2cc(C(C)(C)C)nn2-c2cccc(Cl)c2)c2ccc(NS(C)(=O)=O)c(F)c2)cc1` (stereo not drawn), the Ki result is on record as “Not Active”. Still for that read-out and setting: for `CC(C)(C)c1cc(CNC(=O)C(c2ccc(NS(C)(=O)=O)c(F)c2)C2CCCCC2)n(-c2cccc(Cl)c2)n1` (stereo not drawn) the value was “Not Active”; for `CC(C(=O)NCc1cc(C(C)(C)C)nn1C)c1ccc(NS(C)(=O)=O)c(F)c1` (stereo not drawn), “Not Active”; for `CC(C(=O)NCc1cc(C(C)(C)C)n[nH]1)c1ccc(NS(C)(=O)=O)c(F)c1` (stereo not drawn), “Not Active”.

The experiment is the same for the next values; noted with them: read-out: Ki.
Turning to `CCCCCCn1nc(C(C)(C)C)cc1CNC(=O)C(C)c1ccc(NS(C)(=O)=O)c(F)c1` (stereo not drawn), the Ki amounted to 27.7 nM. Same read-out and setting: for `CC(C(=O)NCc1cc(C(F)(F)F)nn1-c1ccc(Cl)cc1)c1ccc(NS(C)(=O)=O)c(F)c1` (stereo not drawn) the value was 0.4 nM; for `CCCCCn1nc(C(C)(C)C)cc1CNC(=O)C(C)c1ccc(NS(C)(=O)=O)c(F)c1` (stereo not drawn), 50.2 nM; for `CCC/C=C/n1nc(C(C)(C)C)cc1CNC(=O)C(C)c1ccc(NS(C)(=O)=O)c(F)c1` (stereo not drawn), 5.1 nM. Still for that read-out and setting: under `Cc1ccc(/C=C/c2ccc(-n3nc(C(C)(C)C)cc3CNC(=O)C(C)c3ccc(NS(C)(=O)=O)c(F)c3)cc2)cc1` (stereo not drawn) stands 819 nM; under `C[C@H](C(=O)NCc1cc(C(C)(C)C)nn1-c1ccc(F)c(Cl)c1)c1ccc(NS(C)(=O)=O)c(F)c1`, 0.1 nM; under `CC(C(=O)NCc1cc(C(C)(C)C)nn1-c1ccccc1)c1ccc(NS(C)(=O)=O)c(F)c1` (stereo not drawn), 8 nM.

In another experiment the target is T1, Transient receptor potential cation channel subfamily V member 1. In words: Antagonist activity at human TRPV1 expressed in CHO cells assessed as inhibition of NADA-induced intracellular calcium level preincubated with cells followed by NADA addition by Fluo-4 dye based FLIPR assay.
Conditions: not given; call rule not given here
Take `C[C@H](C(=O)NCc1cc(C(C)(C)C)nn1-c1cccc(Cl)c1)c1ccc(NS(C)(=O)=O)c(F)c1`: the Ki came to 0.04 nM.

The next experiment shares this target. As to the kind of experiment: Antagonist activity at pH 6 to 6.3 activated human TRPV1 expressed in CHO cells assessed as inhibition of intracellular calcium level preincubated with cells followed by receptor activation by Fluo-4 dye based FLIPR assay. In kind it is cell-based.
Conditions: not given
For `C[C@H](C(=O)NCc1cc(C(C)(C)C)nn1-c1cccc(Cl)c1)c1ccc(NS(C)(=O)=O)c(F)c1`, the IC50 result was “Not Active”.

The target is the same in the next experiment. As to the kind of experiment: Antagonist activity at elevated temperature activated human TRPV1 expressed in CHO cells assessed as inhibition of intracellular calcium level preincubated for 5 mins followed by receptor activation by increasing temperature to 45 degC by Fluo-4 dye based FLIPR assay. It counts as cell-based.
Conditions: not given
Turning to `C[C@H](C(=O)NCc1cc(C(C)(C)C)nn1-c1cccc(Cl)c1)c1ccc(NS(C)(=O)=O)c(F)c1`, the IC50 result was “Not Active”.

Another experiment relates to Mus musculus. In words: Inhibition of capsaicin-induced hypothermia in NMRI mouse at 3 mg/kg, po pretreated for 15 mins followed by capsaicin treatment measured up to 120 mins relative to control. In kind it is functional.
Conditions: not given
`C[C@H](C(=O)NCc1cc(C(C)(C)C)nn1-c1cccc(Cl)c1)c1ccc(NS(C)(=O)=O)c(F)c1`: the inhibition in vivo (commonly the share of the control response that was lost under treatment) at 3 mg/kg amounted to 95%. For the compound `C[C@H](C(=O)NCc1cc(C(F)(F)F)nn1-c1cccc(Cl)c1)c1ccc(NS(C)(=O)=O)c(F)c1`, the inhibition in vivo at 3 mg/kg is 85%.
